Reference: US8343998B2, “Triazolothiadiazole inhibitor of c-Met protein kinase” (Vertex Pharmaceuticals Incorporated, priority 2008, dated 2013)
pIC50: −log10 of the molar value. ≈ marks a conversion by molar mass, not a printed value. Where “and” joins values, the source holds several entries; their conditions need not be identical. Equal entries are not always repeated. Where two headings read alike, the source gives them in different places.

Tests used:
[1] = Solubility of compound 1 crystalline free base in different solvents, by HPLC; assay type: physicochemical; conditions: thermodynamic from solid, crystalline free base slurry, room temperature, 4 day solution, read-out: Conc. FB (solubility)
Description: About 10 mg of compound 1, crystalline free base (FB), was loaded into a vial with a magnetic stir bar. About 150 μL of solvent were added to each vial. If compound 1 dissolved completely, more solid was added to the vial and stirring of the resulting slurry was continued at room temperature. The 4 day solution was filtered off using centrifuge filters and diluted in methanol to obtain solubility data by HPLC analysis. X-ray diffraction data of the crystals in the slurry were collected after 4 and 14 days.

[2] = molecular target: T1, c-Met (Homo sapiens, UniProt P08581); assay: Inhibition of c-Met activity in Snu5 gastric carcinoma cells (Snu5-AP1-Luc-Pest luciferase signal); assay type: cell-based; conditions: 6 hours, luciferase luminescence
T1 construct: is a human gastric carcinoma known to overexpress c-Met, which is constitutively active; host or cells: Snu5-AP1-Luc-Pest (Snu5 transduced with an AP1-luciferase-PEST reporter)
From the text: Compound 1 was also screened for their ability to inhibit the Luciferase-induced signal in an engineered Snu5 cell line. Snu5 [obtained from American Type Culture Collection (Catalog number CRL-5973)] is a human gastric carcinoma known to overexpress c-Met, which is constitutively active. […] The constitutively active c-Met activates cellular pathways (principally MAP kinase), resulting in AP-1-induced transcription of luciferase-PEST and translation into the final product, the activity of which is quantifiable as a chemiluminescent readout upon the addition of luciferin (Steady-Glo from Promega.). Residual luminescence is strongly correlated to the inhibition of c-Met. A stable cell line was obtained by selecting the new cell line (Snu5-AP1-Luc-Pest) with puromycin. The cells were grown in complete media [Iscove's media (Invitrogen) containing 10% fetal bovine serum (FBS, Hyclone) and penicillin/gentamycin (Invitrogen)]. Compounds of the invention were dissolved in DMSO to make 10 mM initial stock solutions. Serial dilutions in DMSO were then made and transferred to complete medium to make a 10× solution. The Snu5-AP1-Luc-Pest cells were counted and diluted to 200,000-cells/mL solution. […] The plate was read on a 1450 Microbeta Liquid Scintillation and Luminescence Counter (Perkin-Elmer). The IC50 was calculated using a 4-parameter fit using the graphing software Prism (GraphPad).

[3] = molecular target: T2, hERG (Homo sapiens, UniProt Q12809); assay: hERG inhibition assay, whole cell recording in HEK293 cells expressing hERG; assay type: cell-based; conditions: hERG current, peak tail current
T2 construct: host or cells: HEK293
Description: Peak tail current was measured during the 2 second step to −50 mV.

[4] = molecular target: T3, CYP1A2 (Homo sapiens, UniProt P05177); assay: Stability in human recombinant CYP isoform; assay type: in vitro ADME; conditions: 120 minutes, 50 pmoles CYP/mL, NADPH, two separate studies (two lines)
T3 construct: host or cells: baculovirus-infected insect cells
T3 sequence (P05177 1-516): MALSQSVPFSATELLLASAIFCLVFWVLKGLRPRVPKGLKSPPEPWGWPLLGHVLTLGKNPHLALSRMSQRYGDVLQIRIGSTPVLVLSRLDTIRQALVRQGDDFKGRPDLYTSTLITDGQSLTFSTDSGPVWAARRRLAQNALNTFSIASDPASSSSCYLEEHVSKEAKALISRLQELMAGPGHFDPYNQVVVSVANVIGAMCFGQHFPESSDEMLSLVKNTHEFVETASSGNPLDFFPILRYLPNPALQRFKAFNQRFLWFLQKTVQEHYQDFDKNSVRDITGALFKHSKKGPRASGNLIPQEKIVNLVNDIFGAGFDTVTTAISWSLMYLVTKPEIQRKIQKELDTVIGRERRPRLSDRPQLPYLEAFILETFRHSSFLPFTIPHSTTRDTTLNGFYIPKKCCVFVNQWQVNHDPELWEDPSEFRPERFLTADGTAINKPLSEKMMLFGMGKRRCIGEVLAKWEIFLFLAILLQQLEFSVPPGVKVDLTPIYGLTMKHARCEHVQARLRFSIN
Description: (§1) The stability of compound 1 was evaluated in cDNA Baculovirus-insect cell-expressed human cytochrome P450 (CYP) isoforms CYP1A2, CYP2B6, CYP2C9, CYP2C19, CYP2D6, CYP2E1, and CYP3A4. Accordingly, the human recombinant cytochrome P450 isoforms at a final concentration of 50 pmoles of CYP/mL were incubated in phosphate buffer (pH 7.4) with 2.0 mM NADPH and compound 1 at compound concentrations of 1 μM and 10 μM. Sampling was conducted at 0 and 120 minutes and the amount of compound remaining was evaluated by LC/MS/MS analysis.

[5] = molecular target: T4, CYP2B6 (Homo sapiens, UniProt P20813); assay: Stability in human recombinant CYP isoform; assay type: in vitro ADME; conditions: 120 minutes, 50 pmoles CYP/mL, NADPH, two separate studies (two lines)
T4 construct: host or cells: baculovirus-infected insect cells
T4 sequence (P20813 1-491): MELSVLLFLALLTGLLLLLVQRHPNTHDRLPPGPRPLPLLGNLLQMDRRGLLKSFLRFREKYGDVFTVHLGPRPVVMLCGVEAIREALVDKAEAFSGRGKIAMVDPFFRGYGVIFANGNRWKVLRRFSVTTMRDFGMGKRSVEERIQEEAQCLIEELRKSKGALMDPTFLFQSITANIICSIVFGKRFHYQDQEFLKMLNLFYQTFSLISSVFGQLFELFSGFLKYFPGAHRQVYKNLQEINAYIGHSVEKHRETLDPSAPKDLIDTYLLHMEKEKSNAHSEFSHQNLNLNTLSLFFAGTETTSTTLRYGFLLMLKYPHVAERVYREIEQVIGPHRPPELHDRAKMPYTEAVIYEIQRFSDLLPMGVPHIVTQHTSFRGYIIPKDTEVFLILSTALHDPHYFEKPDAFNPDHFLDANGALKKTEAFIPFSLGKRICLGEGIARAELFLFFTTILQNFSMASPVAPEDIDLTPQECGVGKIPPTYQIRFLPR
Description: as §1

[6] = molecular target: T5, CYP2C19 (Homo sapiens, UniProt P33261); assay: Stability in human recombinant CYP isoform; assay type: in vitro ADME
T5 construct: host or cells: baculovirus-infected insect cells
Description: as §1

[7] = molecular target: T6, CYP2C9 (Homo sapiens, UniProt P11712); assay: Stability in human recombinant CYP isoform; assay type: in vitro ADME; conditions: 120 minutes, 50 pmoles CYP/mL, NADPH, two separate studies (two lines)
T6 construct: host or cells: baculovirus-infected insect cells
Description: as §1

[8] = molecular target: T7, CYP2D6 (Homo sapiens, UniProt P10635); assay: Stability in human recombinant CYP isoform; assay type: in vitro ADME; conditions: 120 minutes, 50 pmoles CYP/mL, NADPH, two separate studies (two lines)
T7 construct: host or cells: baculovirus-infected insect cells
Description: as §1

[9] = molecular target: T8, CYP2E1 (Homo sapiens, UniProt P05181); assay: Stability in human recombinant CYP isoform; assay type: in vitro ADME; conditions: 120 minutes, 50 pmoles CYP/mL, NADPH, two separate studies (two lines)
T8 construct: host or cells: baculovirus-infected insect cells
Description: as §1

[10] = molecular target: T9, CYP3A4 (Homo sapiens, UniProt P08684); assay: Stability in human recombinant CYP isoform; assay type: in vitro ADME
T9 construct: host or cells: baculovirus-infected insect cells
Description: as §1

[11] = compound at 10 μM, 120 minutes, 50 pmoles CYP/mL, NADPH, two separate studies (two lines)

T8 sequence (P05181 whole entry, canonical isoform): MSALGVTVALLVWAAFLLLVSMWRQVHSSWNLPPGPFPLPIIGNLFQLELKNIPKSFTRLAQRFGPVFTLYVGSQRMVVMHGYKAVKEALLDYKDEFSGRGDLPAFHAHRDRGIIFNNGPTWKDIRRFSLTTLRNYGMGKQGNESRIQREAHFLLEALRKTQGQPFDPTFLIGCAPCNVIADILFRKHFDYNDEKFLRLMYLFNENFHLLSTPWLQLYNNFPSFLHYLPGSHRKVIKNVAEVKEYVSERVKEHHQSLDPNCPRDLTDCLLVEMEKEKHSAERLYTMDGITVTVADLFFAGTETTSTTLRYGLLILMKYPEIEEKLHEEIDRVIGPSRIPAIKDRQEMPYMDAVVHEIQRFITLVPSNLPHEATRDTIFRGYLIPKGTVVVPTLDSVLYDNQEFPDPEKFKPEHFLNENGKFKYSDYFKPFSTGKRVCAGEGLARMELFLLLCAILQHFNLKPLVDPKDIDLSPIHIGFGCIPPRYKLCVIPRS
T7 sequence (P10635 whole entry, canonical isoform): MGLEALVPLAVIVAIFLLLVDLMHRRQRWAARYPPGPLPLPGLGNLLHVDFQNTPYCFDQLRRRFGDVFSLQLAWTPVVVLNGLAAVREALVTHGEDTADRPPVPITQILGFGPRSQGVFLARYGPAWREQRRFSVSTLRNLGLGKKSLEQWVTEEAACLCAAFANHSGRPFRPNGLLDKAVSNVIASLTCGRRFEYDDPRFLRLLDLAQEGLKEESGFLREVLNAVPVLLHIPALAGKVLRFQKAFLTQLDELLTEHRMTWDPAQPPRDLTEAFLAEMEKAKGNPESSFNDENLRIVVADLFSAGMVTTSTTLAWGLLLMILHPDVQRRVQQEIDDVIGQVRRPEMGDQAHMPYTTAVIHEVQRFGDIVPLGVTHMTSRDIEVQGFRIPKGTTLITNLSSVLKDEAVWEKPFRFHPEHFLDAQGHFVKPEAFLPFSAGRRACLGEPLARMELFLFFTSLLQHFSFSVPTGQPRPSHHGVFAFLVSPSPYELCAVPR
T5 sequence (P33261 whole entry, canonical isoform): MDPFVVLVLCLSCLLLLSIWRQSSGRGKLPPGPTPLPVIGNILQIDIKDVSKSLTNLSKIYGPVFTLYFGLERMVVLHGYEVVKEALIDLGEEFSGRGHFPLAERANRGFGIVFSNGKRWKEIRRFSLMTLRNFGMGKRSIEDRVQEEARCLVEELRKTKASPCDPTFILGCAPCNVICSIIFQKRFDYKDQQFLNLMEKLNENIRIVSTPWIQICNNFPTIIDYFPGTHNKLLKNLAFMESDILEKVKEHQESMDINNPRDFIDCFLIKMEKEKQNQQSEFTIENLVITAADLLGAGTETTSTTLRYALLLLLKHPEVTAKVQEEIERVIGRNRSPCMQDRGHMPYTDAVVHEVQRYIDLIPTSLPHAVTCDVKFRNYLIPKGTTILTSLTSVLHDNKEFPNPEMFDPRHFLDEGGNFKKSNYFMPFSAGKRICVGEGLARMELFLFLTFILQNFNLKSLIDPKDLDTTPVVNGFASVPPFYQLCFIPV
T9 sequence (P08684 whole entry, canonical isoform): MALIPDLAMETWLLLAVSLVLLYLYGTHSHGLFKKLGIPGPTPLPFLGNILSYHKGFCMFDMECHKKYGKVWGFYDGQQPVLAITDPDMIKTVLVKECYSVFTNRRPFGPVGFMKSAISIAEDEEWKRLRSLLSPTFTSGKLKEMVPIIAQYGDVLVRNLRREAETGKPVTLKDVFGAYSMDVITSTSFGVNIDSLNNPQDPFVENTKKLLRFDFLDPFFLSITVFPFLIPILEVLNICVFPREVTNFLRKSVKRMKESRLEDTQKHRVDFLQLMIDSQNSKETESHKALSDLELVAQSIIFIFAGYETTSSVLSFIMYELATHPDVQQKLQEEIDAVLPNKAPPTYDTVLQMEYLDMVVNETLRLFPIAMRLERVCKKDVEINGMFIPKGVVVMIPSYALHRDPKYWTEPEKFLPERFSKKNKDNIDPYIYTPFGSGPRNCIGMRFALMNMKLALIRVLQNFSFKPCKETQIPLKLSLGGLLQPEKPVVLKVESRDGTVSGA
T6 sequence (P11712 whole entry, canonical isoform): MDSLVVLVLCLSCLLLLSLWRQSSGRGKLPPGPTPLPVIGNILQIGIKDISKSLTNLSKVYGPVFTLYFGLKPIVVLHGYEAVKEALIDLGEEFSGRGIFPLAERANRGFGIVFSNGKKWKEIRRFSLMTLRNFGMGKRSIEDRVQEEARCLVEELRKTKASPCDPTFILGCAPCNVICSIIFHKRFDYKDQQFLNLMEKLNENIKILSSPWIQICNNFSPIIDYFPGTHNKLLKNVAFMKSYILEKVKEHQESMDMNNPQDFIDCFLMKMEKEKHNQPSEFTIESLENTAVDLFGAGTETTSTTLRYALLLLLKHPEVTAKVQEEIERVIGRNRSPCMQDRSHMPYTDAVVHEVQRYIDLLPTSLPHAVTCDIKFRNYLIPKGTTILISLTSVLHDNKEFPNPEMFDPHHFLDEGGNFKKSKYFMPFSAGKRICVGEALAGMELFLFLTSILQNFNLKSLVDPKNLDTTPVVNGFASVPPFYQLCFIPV
T1 sequence (P08581 25-1390): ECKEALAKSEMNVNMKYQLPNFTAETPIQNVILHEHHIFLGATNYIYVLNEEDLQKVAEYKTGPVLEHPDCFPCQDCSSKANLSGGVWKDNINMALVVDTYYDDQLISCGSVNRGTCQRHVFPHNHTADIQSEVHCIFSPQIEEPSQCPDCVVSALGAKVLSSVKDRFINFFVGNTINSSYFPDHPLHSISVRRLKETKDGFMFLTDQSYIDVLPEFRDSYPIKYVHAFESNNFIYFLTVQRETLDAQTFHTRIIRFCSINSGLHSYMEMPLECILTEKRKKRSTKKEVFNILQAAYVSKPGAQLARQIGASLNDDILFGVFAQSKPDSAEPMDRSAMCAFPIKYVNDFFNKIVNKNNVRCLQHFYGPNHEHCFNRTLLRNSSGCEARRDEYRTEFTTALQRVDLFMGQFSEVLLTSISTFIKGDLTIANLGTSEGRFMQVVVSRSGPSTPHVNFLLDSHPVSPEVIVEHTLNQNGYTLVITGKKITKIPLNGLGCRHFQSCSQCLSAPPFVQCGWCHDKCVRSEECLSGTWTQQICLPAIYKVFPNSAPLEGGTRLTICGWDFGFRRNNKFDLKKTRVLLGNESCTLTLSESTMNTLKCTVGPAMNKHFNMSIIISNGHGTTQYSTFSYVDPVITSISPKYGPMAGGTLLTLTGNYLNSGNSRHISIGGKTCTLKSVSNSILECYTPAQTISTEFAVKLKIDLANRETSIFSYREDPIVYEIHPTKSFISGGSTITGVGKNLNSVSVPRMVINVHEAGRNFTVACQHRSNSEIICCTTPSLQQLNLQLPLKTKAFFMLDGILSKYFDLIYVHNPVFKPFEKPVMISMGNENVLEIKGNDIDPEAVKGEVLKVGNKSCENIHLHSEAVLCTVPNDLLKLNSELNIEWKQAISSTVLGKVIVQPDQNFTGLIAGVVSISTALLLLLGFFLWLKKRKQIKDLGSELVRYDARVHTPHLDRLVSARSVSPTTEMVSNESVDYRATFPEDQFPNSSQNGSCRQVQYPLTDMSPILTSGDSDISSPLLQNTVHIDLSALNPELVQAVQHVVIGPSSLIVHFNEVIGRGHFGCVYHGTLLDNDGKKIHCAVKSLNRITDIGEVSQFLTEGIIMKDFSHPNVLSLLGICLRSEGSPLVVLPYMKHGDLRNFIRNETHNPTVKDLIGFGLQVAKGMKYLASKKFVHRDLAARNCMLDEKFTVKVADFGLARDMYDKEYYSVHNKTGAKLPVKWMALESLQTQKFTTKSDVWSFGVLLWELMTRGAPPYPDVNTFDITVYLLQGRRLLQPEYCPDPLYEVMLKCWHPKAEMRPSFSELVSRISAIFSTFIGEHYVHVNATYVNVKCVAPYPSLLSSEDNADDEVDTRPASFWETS
T2 sequence (Q12809 whole entry): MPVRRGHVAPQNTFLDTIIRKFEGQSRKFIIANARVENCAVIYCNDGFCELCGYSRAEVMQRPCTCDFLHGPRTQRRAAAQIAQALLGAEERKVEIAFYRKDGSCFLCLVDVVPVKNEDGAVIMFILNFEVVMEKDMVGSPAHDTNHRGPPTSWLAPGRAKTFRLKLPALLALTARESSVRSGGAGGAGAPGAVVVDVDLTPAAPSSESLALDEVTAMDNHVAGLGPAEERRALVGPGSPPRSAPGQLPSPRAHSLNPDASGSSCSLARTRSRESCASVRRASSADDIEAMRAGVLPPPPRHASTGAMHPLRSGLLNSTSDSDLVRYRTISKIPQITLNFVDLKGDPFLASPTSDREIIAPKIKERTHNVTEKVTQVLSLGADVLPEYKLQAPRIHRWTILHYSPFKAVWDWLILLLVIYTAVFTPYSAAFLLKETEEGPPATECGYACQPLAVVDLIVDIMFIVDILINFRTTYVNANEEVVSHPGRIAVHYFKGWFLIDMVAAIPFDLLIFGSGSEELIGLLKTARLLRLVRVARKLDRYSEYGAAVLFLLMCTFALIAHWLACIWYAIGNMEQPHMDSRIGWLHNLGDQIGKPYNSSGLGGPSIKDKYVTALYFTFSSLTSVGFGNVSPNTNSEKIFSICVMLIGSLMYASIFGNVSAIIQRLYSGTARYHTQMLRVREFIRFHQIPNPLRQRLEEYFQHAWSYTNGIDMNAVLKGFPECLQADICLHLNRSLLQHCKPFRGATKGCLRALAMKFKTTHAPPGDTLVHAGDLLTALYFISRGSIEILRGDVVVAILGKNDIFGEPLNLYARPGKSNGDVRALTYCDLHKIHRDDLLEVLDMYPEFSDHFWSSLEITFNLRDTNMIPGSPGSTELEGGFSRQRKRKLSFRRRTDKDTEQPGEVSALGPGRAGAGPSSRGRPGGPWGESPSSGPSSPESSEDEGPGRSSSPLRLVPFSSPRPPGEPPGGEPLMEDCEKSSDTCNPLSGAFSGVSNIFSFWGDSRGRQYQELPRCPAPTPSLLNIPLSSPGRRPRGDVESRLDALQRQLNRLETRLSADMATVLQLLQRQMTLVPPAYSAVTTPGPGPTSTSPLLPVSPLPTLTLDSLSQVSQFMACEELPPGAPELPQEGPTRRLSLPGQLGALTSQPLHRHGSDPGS

C[C@@H](c1ccc2ncccc2c1)c1nnc2sc(-c3cnn(C)c3)nn12 [Compound 1, 6-((S)-1-(6-(1-methyl-1H-pyrazol-4-yl)-[1,2,4]triazolo[3,4-b][1,3,4]thiadiazol-3-yl)ethyl)quinoline]
solubility at 4 day ([1]; organic solvent or mixture, solvent 2-Methyl THF): 9.03 mg/mL (≈ 25 mM) | solubility at 4 day ([1]; organic solvent or mixture, solvent Acetone): 14.3 mg/mL (≈ 39.5 mM) | solubility at 4 day ([1]; organic solvent or mixture, solvent Acetonitrile): 9.76 mg/mL (≈ 27 mM) | solubility at 4 day ([1]; organic solvent or mixture, solvent Benzyl Alcohol): 362 mg/mL (≈ 1000 mM) | solubility at 4 day ([1]; organic solvent or mixture, solvent Cumene): 2.52 mg/mL (≈ 6.97 mM) | solubility at 4 day ([1]; organic solvent or mixture, solvent DCM): 116 mg/mL (≈ 322 mM) | solubility at 4 day ([1]; organic solvent or mixture, solvent DME): 16.1 mg/mL (≈ 44.4 mM) | solubility at 4 day ([1]; organic solvent or mixture, solvent DMSO): 67.7 mg/mL (≈ 187 mM) | solubility at 4 day ([1]; organic solvent or mixture, solvent Diiodomethane): 81 mg/mL (≈ 224 mM) | solubility at 4 day ([1]; organic solvent or mixture, solvent Dioxane): 36.8 mg/mL (≈ 102 mM) | solubility at 4 day ([1]; organic solvent or mixture, solvent EtOAc): 7.24 mg/mL (≈ 20 mM) | solubility at 4 day ([1]; organic solvent or mixture, solvent Ethanol): 42.1 mg/mL (≈ 116 mM) | solubility at 4 day ([1]; organic solvent or mixture, solvent Ethylene Glycol): 35.3 mg/mL (≈ 97.8 mM) | solubility at 4 day ([1]; organic solvent or mixture, solvent Glycerol): 0.69 mg/mL (≈ 1.91 mM) | solubility at 4 day ([1]; organic solvent or mixture, solvent IPA): 7.92 mg/mL (≈ 21.9 mM) | solubility at 4 day ([1]; organic solvent or mixture, solvent MEK): 14.2 mg/mL (≈ 39.4 mM) | solubility at 4 day ([1]; organic solvent or mixture, solvent MTBE): 0.3 mg/mL (≈ 0.83 mM) | solubility at 4 day ([1]; organic solvent or mixture, solvent Methanol): 41 mg/mL (≈ 114 mM) | solubility at 4 day ([1]; organic solvent or mixture, solvent Nitromethane): 44.4 mg/mL (≈ 123 mM) | solubility at 4 day ([1]; solvent water): 0.15 mg/mL (≈ 0.415 mM) | pIC50 [2]: 7.64 | pIC50 [3]: 3.96 | % remaining +/− SDEV ([4]; compound at 1 μM): 113 +/− 7.2% and 79 +/− 9.6% | % remaining +/− SDEV ([4]; compound at 10 μM): 96.7 +/− 4.3% and 86 +/− 7.8% | % remaining +/− SDEV ([5]; compound at 1 μM): 93 +/− 5.4% and 91.7 +/− 10.4% | % remaining +/− SDEV ([5]; compound at 10 μM): 99 +/− 4.8% and 101 +/− 1.4% | % remaining +/− SDEV [6, 11]: 40.3 +/− 2.2% and 34 +/− 3.3% | Metabolism by the CYP isoform, in words ([6]; summary of Table 4): metabolized by both CYP2C19 and CYP3A4 isoforms | % remaining +/− SDEV ([7]; compound at 1 μM): 128 +/− 22.5% and 96 +/− 2.2% | % remaining +/− SDEV ([7]; compound at 10 μM): 101 +/− 4.4% and 101 +/− 8.5% | % remaining +/− SDEV ([8]; compound at 1 μM): 102 +/− 3.6% and 125 +/− 44.2% | % remaining +/− SDEV ([8]; compound at 10 μM): 94.7 +/− 4.4% and 130 +/− 11% | % remaining +/− SDEV ([9]; compound at 1 μM): 109 +/− 19% and 164 +/− 54.8% | % remaining +/− SDEV ([9]; compound at 10 μM): 109 +/− 5.6% and 111 +/− 1.1% | % remaining +/− SDEV [10, 11]: 31.8 +/− 2.1% and 56 +/− 14% | Metabolism by the CYP isoform, in words ([10]; summary of Table 4): metabolized by both CYP2C19 and CYP3A4 isoforms
